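48-hour exposure; five concentrations; linearly interpolated endpoints. GI50 = concentration required for 50% inhibition of growth.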 The source made the active and inactive calls. Rule as the data show it: active = GI50 up to about 1.1 µM and inactive = higher.
Assays:
Assay in all cases: growth of human tumour cells (NCI), 48 h
CAKI-1 = tested on: CAKI-1
CCRF-CEM = tested on: CCRF-CEM
HL-60 = tested on: HL-60
OVCAR-4 = tested on: OVCAR-4
HOP-92 = tested on: HOP-92
NCI-H23 = tested on: NCI-H23
MDA-MB-231 = tested on: MDA-MB-231
OVCAR-3 = tested on: OVCAR-3
MOLT-4 = tested on: MOLT-4
RPMI-8226 = tested on: RPMI-8226
SW-620 = tested on: SW-620
KM12 = tested on: KM12
A549 = tested on: A549
HCT-15 = tested on: HCT-15
HOP-62 = tested on: HOP-62
SNB-19 = tested on: SNB-19
SF-268 = tested on: SF-268
SK-OV-3 = tested on: SK-OV-3
OVCAR-8 = tested on: OVCAR-8
SF-295 = tested on: SF-295
MDA-N = tested on: MDA-N
HCC 2998 = tested on: HCC 2998
SK-MEL-28 = tested on: SK-MEL-28
UO-31 = tested on: UO-31
MDA-MB-435 = tested on: MDA-MB-435
HCT-116 = tested on: HCT-116
NCI-H460 = tested on: NCI-H460
U-251 = tested on: U-251
NCI/ADR-RES = tested on: NCI/ADR-RES
HT-29 = tested on: HT-29
Hs-578T = tested on: Hs-578T
A498 = tested on: A498
DU-145 = tested on: DU-145
SF-539 = tested on: SF-539
M14 = tested on: M14
UACC-62 = tested on: UACC-62
LOX IMVI = tested on: LOX IMVI
IGROV-1 = tested on: IGROV-1
Malme-3M = tested on: Malme-3M
SK-MEL-2 = tested on: SK-MEL-2
BT-549 = tested on: BT-549
SR = tested on: SR
NCI-H522 = tested on: NCI-H522
ACHN = tested on: ACHN
UACC-257 = tested on: UACC-257
K562 = tested on: K562
SNB-75 = tested on: SNB-75
PC-3 = tested on: PC-3
COLO 205 = tested on: COLO 205
SN12C = tested on: SN12C
SK-MEL-5 = tested on: SK-MEL-5
EKVX = tested on: EKVX
RXF 393 = tested on: RXF 393
786-0 = tested on: 786-0
OVCAR-5 = tested on: OVCAR-5
T47D = tested on: T47D

Q: Which results are given for `CNC(=S)N/N=C(\C)c1cc(OC)ccc1O`?
A: GI50 (CAKI-1): > 100 µM (inactive); GI50 (CCRF-CEM): > 27.9 µM (inactive); GI50 (HL-60): > 31.4 µM (inactive); GI50 (OVCAR-4): > 100 µM (inactive); GI50 (HOP-92): > 100 µM (inactive); GI50 (NCI-H23): > 100 µM (inactive); GI50 (MDA-MB-231): > 100 µM (inactive); GI50 (OVCAR-3): > 100 µM (inactive); GI50 (MOLT-4): > 65.6 µM (inactive); GI50 (RPMI-8226): > 31.3 µM (inactive); GI50 (SW-620): > 100 µM (inactive); GI50 (KM12): > 100 µM (inactive); GI50 (A549): > 100 µM (inactive); GI50 (HCT-15): 63.1 µM; GI50 (HOP-62): > 100 µM (inactive); GI50 (SNB-19): > 100 µM (inactive); GI50 (SF-268): > 100 µM (inactive); GI50 (SK-OV-3): > 100 µM (inactive); GI50 (OVCAR-8): > 100 µM (inactive); GI50 (SF-295): > 100 µM (inactive); GI50 (MDA-N): > 100 µM (inactive); GI50 (HCC 2998): > 100 µM (inactive); GI50 (SK-MEL-28): > 100 µM (inactive); GI50 (UO-31): > 100 µM (inactive); GI50 (MDA-MB-435): > 78.9 µM (inactive); GI50 (HCT-116): > 100 µM (inactive); GI50 (NCI-H460): > 100 µM (inactive); GI50 (U-251): > 100 µM (inactive); GI50 (NCI/ADR-RES): 28.6 µM (inactive); GI50 (HT-29): 0.951 µM (active); GI50 (Hs-578T): > 100 µM (inactive); GI50 (A498): > 100 µM (inactive); GI50 (DU-145): > 100 µM (inactive); GI50 (SF-539): > 100 µM (inactive); GI50 (M14): > 92.5 µM (inactive); GI50 (UACC-62): > 100 µM (inactive); GI50 (LOX IMVI): > 100 µM (inactive); GI50 (IGROV-1): > 64.9 µM (inactive); GI50 (Malme-3M): > 100 µM (inactive); GI50 (SK-MEL-2): > 100 µM (inactive); GI50 (BT-549): > 100 µM (inactive); GI50 (SR): 43.5 µM (inactive); GI50 (NCI-H522): 3.9 µM (inactive); GI50 (ACHN): > 100 µM (inactive); GI50 (UACC-257): > 100 µM (inactive); GI50 (K562): 3.22 µM (inactive); GI50 (SNB-75): > 95.3 µM (inactive); GI50 (PC-3): > 96.4 µM (inactive); GI50 (COLO 205): 0.447 µM (active); GI50 (SN12C): > 100 µM (inactive); GI50 (SK-MEL-5): > 44.3 µM (inactive); GI50 (EKVX): > 100 µM (inactive); GI50 (RXF 393): > 100 µM (inactive); GI50 (786-0): > 100 µM (inactive); GI50 (OVCAR-5): > 100 µM (inactive); GI50 (T47D): > 100 µM (inactive)

— ChEMBL document CHEMBL1201862, “PubChem BioAssay data set” (2004)
